The test system of test [1] is ER pathway. In words: ER pathway activity score in MCF7 cells stimulated with or deprived of E2 (GSE11352). In kind it is cell-based. The following applies: MCF7, longer exposure times (12, 24, 48 hours) to ER stimulating agent. An excerpt: FIG. 12 ER pathway prediction in stimulation response data of MCF7 cells treated with ER stimulating agent (E2) or control for several treatment intervals (GSE11352, continuous data). The model is trained using continuous expression data of GSE8597, the “most discriminative probesets” (underlined probesets in Table 2) and “log odds” weights (see training results in FIG. 10).
In another example, a publically available data set of MCF7 cell lines stimulated with or deprived of ER stimulating agent (E2) with expression levels measured at 12 hours, 24 hours and 48 hours after starting stimulation or deprivation (GSE11352) was used to calculate the ER activity scores using the trained ER (pseudo-)linear model as described herein. […] With the exception of the starvation of 48 hours, the predicted ER activity scores nicely correlates with the knowledge that prolonged stimulation result in higher ER activity and vice versa. Inversely, this example implies that the ER activity score can be used to monitor efficacy or inefficacy of stimulation or inhibition of ER activity treatments.

The subject of test [2] is ER pathway. As to the kind of experiment: ER activity score validation in MCF7 breast cancer cell line (GSE9253). It counts as cell-based. The following applies: MCF7 sample stimulated with E2, 3 hours. From the text:
FIG. 17 ER validation results of a stimulation experiment with MCF7 cells (GSE9253, continuous data). The (pseudo-)linear model was trained using continuous expression data of GSE8597, the “most discriminative probesets” (underlined probesets in Table 2) and “log odds” weights (see training results in FIG. 10). It is clear from the MCF7 cells stimulated with E2, ER stimulating agent, that the defined threshold was set too high. The reason for this discrepancy could be a different stimulation regime (i.e. higher E2 concentration, but shorter stimulation time, etc.). Nevertheless, the difference of the calculated ER activity scores of the stimulated and non-stimulated cells is evident.
In FIG. 17 the validation results of the trained ER (pseudo-)linear model is shown for two microarrays measured using a MCF7 breast cancer cell line sample, one stimulated with estradiol (E2) the other one with a negative control (EtOH), originating from the GSE9253 data set. The difference in ER activity score is evident from FIG. 17. […] This is the result of the threshold defining either an active or passive state was set too high for this particular experiment. […]

The test system of test [3] is ER pathway. As to the kind of experiment: Predicted ER pathway activity in wild type MCF7 cell line (GSE21618). In kind it is cell-based. The protocol: (§1) The ER (pseudo-)linear model was trained using continuous expression data of GSE8597, the “most discriminative probesets” (underlined probesets in Table 2) and “log odds” weights (see training results in FIG. 10). Different stimulation regimes were applied, denoted in the different groups of samples, and the expression of mRNA was measured by microarray at 0, 1, 2, 3, 6, 12, 24, 48 hours, denoted by the consecutive samples in the groups.
(§2) The (pseudo-)linear model of the ER pathway, constructed using a node for the transcription factor presence and a layer of probesets (Table 2) associated with the target genes of the ER pathway, analogous to FIG. 2 as described herein, and trained as described herein, was used to calculate the ER pathway activity score.
(§3) With respect to FIG. 20, Tamoxifen is a drug currently used for the treatment of ER+ (estrogen receptor positive) breast cancer. It acts as a partial antagonist of the estrogen receptor inhibiting the uncontrolled cell proliferation which is thought to be induced by ER signaling. […] Many studies have been conducted to investigate this so-called Tamoxifen resistance. The publicly available GSE21618 data set is the result of one of such study and contains microarray data of Tamoxifen resistant and wildtype MCF7 cell lines under different treatment regimes. […]

For test [4], the system named is AR pathway. The following applies: LNCaP stimulated with DHT for 4 hours, compared with 16 hours. From the text: FIG. 13 AR training results using fuzzy transformed expression data of GSE7868, “all probesets” as mentioned in Table 4 and “black and white” weights. The 1st and 2nd group of samples (from the left) has been used as negative and positive training samples, respectively.
The expression data of these stimulation experiments are publically available in the GSE7868 dataset that has been fuzzy transformed as described herein. […] The 1st and 2nd group of samples from the left has been used as negative and positive training samples, respectively.

Test [5] has as its system ER pathway. As to the kind of experiment: Predicted ER pathway activity in Tamoxifen resistant MCF7 cell line (GSE21618). It counts as cell-based. The following applies: Tamoxifen resistant cell line stimulated with E2 and treated with Tamoxifen (TamR.E2_Tam); 1, 2, 3, 6, 12, 24 and 48 h. The protocol: as §1, §2, §3

Molecules are shown by their SMILES.

For the molecule `C[C@]12CC[C@@H]3c4ccc(O)cc4CC[C@H]3[C@@H]1CC[C@@H]2O` [E2, 17beta-estradiol], the “ER pathway activity score” value in test [1] is given as “increase for longer exposure times”. In addition, the ER activity score result in test [2] was “slightly negative ER activity score”. In addition, the ER activity predictions entry in test [3] (wild type MCF7 treated with 17beta-estradiol (wt1.E2)) is listed as “increasing ER positive activity predictions”.
For the molecule `C[C@]12CCC(=O)C[C@@H]1CC[C@@H]1[C@@H]2CC[C@]2(C)[C@@H](O)CC[C@@H]12` [DHT, Dihydrotestosterone], in test [4], the AR activity entry is listed as “demonstrates AR activity, albeit lower activity levels than the cells stimulated for 16 hours”.
On to `CC/C(=C(\c1ccccc1)c1ccc(OCCN(C)C)cc1)c1ccccc1` [Tamoxifen], for which, in test [5], the “predicted ER pathway activity” value is given as “ineffective”. For the same molecule, in test [3] (wild type MCF7 stimulated with E2 and treated with Tamoxifen (wt2.E2_Tam)), the “ER pathway activity score in time” value is listed as “decreasing ER pathway activity score in time”.
